The text below walks through data of patent US20250302961A1, “TARGETING MYELOID-DERIVED SUPPRESSOR CELLS (MDSCS) IN BLADDER CANCER TO ENHANCE EFFICACY OF ADOPTIVE CELL THERAPY (ACT)” (H. LEE MOFFITT CANCER CENTER AND RESEARCH INSTITUTE, INC., priority 2022, published 2025).

This experiment relates to MB49-OVA bladder tumors. Description: Gemcitabine pretreatment and ACT with OT-I T-cells in orthotopic MB49-OVA bladder cancer model, tumor growth by ultrasound. The experiment is classed as in vivo, C57BL/6 mice. To be noted: intravesical 500 ug gemcitabine for 30 minutes, then 5×10^6 OT-I T-cells at day 4 (GEM+OT-I). On the procedure: For murine studies, orthotopic MB49-OVA bladder tumors were collected, stained for MDSCs, and analyzed by flow cytometry. Urine samples from bladder cancer patients were also collected and stained for MDSCs. From mice, purified MDSCs and OT-I T-cells were cocultured and from bladder cancer patients, purified urine MDSCs and CD3-stimulated peripheral blood T-cells were cocultured to assess suppression of T-cell proliferation or IFN-gamma secretion. Mice bearing MB49-OVA tumors were treated with intravesical instillation of gemcitabine and/or OT-I T-cells and tumor growth was monitored via ultrasound. C57BL/6 female mice were initially anesthetized and catheterized (Terumo), then pre-treated orthotopically with Poly-L-Lysine in PBS (50 uL at 1μg/mL) for 10 minutes. Then bladders were washed with 50 uL PBS and mice received intravesical instillation of 1×10^5 MB49-OVA murine bladder cancer cells for 30 minutes. Presence of bladder tumors were confirmed via the Vevo 2100 ultrasound system (FUJIFILM VisualSonics Inc.) 10 days after tumor inoculation and ultrasound was performed 1X per week until mice were euthanized. To evaluate whether targeting MDSCs with gemcitabine (GEM) improves transfer of T cells, C57BL/6 mice received intravesical instillation of MB49-OVA tumor cells and were monitored via ultrasound. Seven-ten days after intravesical instillation of tumor, mice were separated into three treatment groups and an untreated (UNTX) group. The gemcitabine group (GEM) and the combination gemcitabine and OT-I treatment group (GEM+OT-I) received intravesical instillation of 500 ug gemcitabine for 30 minutes. The OT-I treatment group (OT-I) and GEM+OT-I treatment groups received intravesical instillation of 5×10^6 OT-I T-cells for 3 hours at day 4 after instillation of Gem. Tumor growth was measured via ultrasound.

As for `Nc1ccn([C@@H]2O[C@H](CO)[C@@H](O)C2(F)F)c(=O)n1` [gemcitabine], the “anti-tumor response (tumor growth via ultrasound)” value reads like this: (mice bearing large MB49-OVA tumors (>50 mm3)) “improved anti-tumor response”; (mice bearing large MB49-OVA tumors (>50 mm3), listed as Gemcitabine) “improves adoptive cell therapy (ACT)”; (mice bearing smaller MB49-OVA tumors (<50 mm3)) “little added benefit to ACT”.
